We go through three molecules from patent US20110257145A1, “METHOD OF TREATING NEUROLOGICAL DISEASES” (THE BOARD OF TRUSTEES OF THE UNIVERSITY OF ILLINOIS, priority 2008, published 2011).

pKi: −log10 of the molar value.

Data set [1] concerns primary cortical neurons. Kind of data set: neuron viability in the absence of HCA (MTT). The class given is cell-based, rat. As to conditions: concentration not given. As to the method: Primary neurons and cell culture: Cell cultures were obtained from the cerebral cortex of fetal Sprague-Dawley rats (embryonic day 17), as described previously. All experiments were initiated 24 hours after plating. Under these conditions, the cells are not susceptible to glutamate-mediated excitotoxicity.
Oxidative toxicity and neuron viability assays: For cytotoxicity studies, cells were rinsed with warm phosphate-buffered saline (PBS), then placed in minimum essential medium (Invitrogen, Carlsbad, Calif.) containing glucose (5.5 g L^−1), 10% fetal calf serum, L-glutamine (2 mM), and cysteine (100 μM). […] Viability was assessed after 48 hours by calceinacetoxymethyl ester (AM)/ethidium homodimer-1 staining (live/dead assay; Molecular Probes, Eugene, Oreg., USA) under fluorescence microscopy and the MTT assay method. […]
In one embodiment, the present invention relates to a method of treating an individual suffering from a disease or condition wherein activation of PKC and inhibition of HDAC provides a benefit comprising administering a therapeutically effective amount of a compound of structural formula (I) to an individual in need thereof. […] Neuron survival was quantified by MTT assay, a colorimetric assay in which the amount of yellow MTT is reduced to purple formazan by active mitochondrial reductase enzymes in viable cells.

The subject of data set [2] is AD double-transgenic mouse. The note with it: in vivo; cited from earlier work.
Data set [3] deals with fibroblasts from AD patients. The note with it: sub-nanomolar concentrations; cited from earlier work.
Data set [4] addresses mouse PKCα (Mus musculus, UniProt P20444). As to conditions: PKC binding, value marked [52]; read-out: K1[nm] ± SEM; cited from earlier work.
Data set [5] relates to AD cells. As to conditions: cited from earlier work.
In data set [6] the test system is APP-[V717I] transgenic mice. The note with it: in vivo; cited from earlier work.
Data set [7] concerns AD cells. The note with it: cited from earlier work. The source holds these as a separate data set.

On to `CC(/C=C/C(=O)NO)=C\[C@@H](C)C(=O)c1ccc(N(C)C)cc1` [TSA, trichostatin A], for which, in data set [1], the “toxicity in neuron viability measurements” value is recorded as “considerable dose dependent toxicity”.
Take `CCC/C=C/C=C/C(=O)O[C@H]1/C(=C/C(=O)OC)C[C@H]2C[C@H]([C@@H](C)O)OC(=O)C[C@H](O)C[C@@H]3C[C@H](OC(C)=O)C(C)(C)[C@](O)(C[C@@H]4C/C(=C/C(=O)OC)C[C@H](/C=C/C(C)(C)[C@]1(O)O2)O4)O3` [Bryostatin 1]: in data set [2], the behavioral outcome is “improved”, the “brain Aβ40” value was “decreased”, the “brain Aβ42” value was “decreased” and the “rate of premature death” value was “ameliorated”. The “secretion of the α-secretase product sAPPα” value in data set [3] is given as “dramatically enhances”. Also, the pKi in data set [4] was 8.85.
As for `CCCCCCCCC#Cc1ccc2c(c1)CC(CO)NC(=O)C(C(C)C)N2C` (centres unmarked) [BL, 8-(1-decynyl)benzolactam], the “secretion of sAPPα” value in data set [5] is reported as “enhances the secretion of sAPPα”. Besides, in data set [6], the “Aβ40 in the brains” value is given as “decrease” and the “amount of sAPPα in the brains” value is “significantly increase”. Also, in data set [7], the “K+ channel defects” value is given as “reverses”.
